# From patent publication US12729381B2, “Methods and compositions for inactivating interleukin-2-inducible t-cell kinase (ITK)” (priority 2020, dated 2026)
# Non-standard residues stand in square brackets, D forms with d. No end group written: not given here. *: point of attachment. FITC = O=C1OC2(c3ccc(O)cc3Oc3cc(O)ccc32)c2ccc(NC(=S)*)cc21; pY = N[C@@H](Cc1ccc(OP(=O)(O)O)cc1)C(=O)O
# Test system: Tregs (CD4+CD25+FoxP3+)
# Experiment: Treg differentiation in total mouse T cells stimulated with anti-CD3
# Assay type: cell-based
# Details: anti-CD3, 5 to 24 hours; compared to vehicle alone or nonspecific peptide
# Source text: To ensure that the peptide easily enters cells and that its cellular localization can be monitored, a C-terminal TAT peptide (GRKKRRQRRRPQ) (SEQ ID NO:3) and an N-terminal fluorescent FITC dye were incorporated, respectively, and named it SLP76pTYR peptide ([…]). SLP76pTYR peptide (FITC Dye ^132NEEEEAPVEDDADpYEPPPSNDEEA^155-TAT) (SEQ ID NO:5) and non-specific control peptide (FITC Dye-[…]-TAT) (SEQ ID NO:6) were synthesized by Genscript Inc (Piscataway, NJ). These peptides were initially dissolved in 3% ammonia water to a final concentration of 10 mg/mL and then further diluted into PBS to a final concentration of 0.1 mg/mL. Fresh splenocytes were isolated from WT mice, and T cells were generated from splenocytes as previously described (Baker et al., 2001). […] Cells were examined for the presence of FITC by microscopy using a Leica DMi8 microscope equipped with an infinity total internal reflection fluorescence (TIRF) and DIC modules, a Lumencor SOLA SE II light box, a 150 mW 488 (GFP) laser and filter cube, a 100x/1.47 NA objective, and an Andor iXon Life 897 EMCCD camera. […]
substance,measurement,value
FITC Dye ^132NEEEEAPVEDDADpYEPPPSNDEEA^155-TAT ({FITC}-NEEEEAPVEDDAD[pY]EPPPSNDEEAGRKKRRQRRRPQ) [SLP76pTYR],differentiation of Treg cells,Significantly enhanced differentiation of Treg cells
